We go through seven compounds from US4239780A, “Phospholipase A2 inhibition” (The Upjohn Company, priority 1979, dated 1980).

The structures appear in SMILES notation. Structures can show the parent of a compound that is named as a salt.

Experiment [1] addresses T1, HOG PANCREAS PHOSPHOLIPASE A2 (Sus scrofa, UniProt P00592).
T1 construct: from tissue; host or cells: hog pancreas
The experiment in a line: coupled phospholipase A2 / soybean lipoxygenase oxygen consumption assay, hog pancreas enzyme. The format is biochemical. To be noted: estimated I50 calculated from a partial inhibition value, pH 8.5, 37° C.

The target of experiment [2] is T2, HUMAN PLATELET PHOSPHOLIPASE A2 (Homo sapiens, UniProt P47712).
T2 construct: Human blood was drawn from an antecubital vein into 3.8% sodium citrate; endogenous in cells; host or cells: human platelets in citrated plasma (PRP)
T2 sequence (P47712 1-749): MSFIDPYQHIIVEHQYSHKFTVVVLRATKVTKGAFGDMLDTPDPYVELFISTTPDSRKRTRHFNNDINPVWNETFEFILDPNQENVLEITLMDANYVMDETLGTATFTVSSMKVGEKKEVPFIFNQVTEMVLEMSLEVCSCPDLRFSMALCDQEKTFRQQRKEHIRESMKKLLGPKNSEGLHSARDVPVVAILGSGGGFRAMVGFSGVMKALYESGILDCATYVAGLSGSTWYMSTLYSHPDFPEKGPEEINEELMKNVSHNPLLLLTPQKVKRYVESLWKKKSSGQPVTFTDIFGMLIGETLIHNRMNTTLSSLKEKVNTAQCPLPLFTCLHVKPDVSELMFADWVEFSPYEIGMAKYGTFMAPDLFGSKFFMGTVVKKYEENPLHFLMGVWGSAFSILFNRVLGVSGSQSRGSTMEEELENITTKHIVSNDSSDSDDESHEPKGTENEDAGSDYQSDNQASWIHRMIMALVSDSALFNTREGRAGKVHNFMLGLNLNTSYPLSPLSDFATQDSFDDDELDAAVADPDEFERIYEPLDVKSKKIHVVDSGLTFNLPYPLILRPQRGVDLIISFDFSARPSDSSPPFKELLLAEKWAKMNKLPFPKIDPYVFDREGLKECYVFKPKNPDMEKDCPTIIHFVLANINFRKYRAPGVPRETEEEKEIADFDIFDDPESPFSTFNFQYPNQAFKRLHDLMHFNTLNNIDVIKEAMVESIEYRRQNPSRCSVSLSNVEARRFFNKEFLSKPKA
The experiment in a line: inhibition of collagen-induced aggregation of human platelets. The format is cell-based. The settings on record: human platelet rich plasma, read-out: I50 collagen (converted). The method, then: The compounds of the present invention were tested for their ability to inhibit collagen-induced aggregation of platelets at 100 μg. per ml. or less. The compounds that were active against collagen-induced aggregation were tested at the I50 dose against arachidonic acid-induced aggregation. Compounds that inhibited collagen-induced aggregation, but not arachidonic acid-induced aggregation, were reported as active phospholipase A2 inhibitors.
The test was run as follows. Human blood was drawn from an antecubital vein into 3.8% sodium citrate with the final citrate concentration being 0.38%. The blood was transferred to plastic centrifuge tubes and centrifuged at 200×g for 10 min. This yielded […] (PRP). This PRP was allowed to stand for 30 min. for testing at which point it was tested against 400 μg. per ml. of arachidonic acid. […] If the platelets aggregated to arachidonic acid, a dose of collagen that gave a substantial irreversible aggregation (approximately 60-80% transmission) was established. It was then attempted to block the response of collagen with 10 μg. per ml. of indomethacin. […] The ID50 for all unknown compounds was then established. Most of the compounds were tested at rather high concentrations and it was often necessary to place the compound in ethanol into the aggregation cuvet and evaporate the ethanol before testing.
Those that were reported as active were tested at the ID50 dose against 400 μg per ml. of arachidonic acid. […] The compounds are shown to inhibit phospholipase A2 from humans at low dosages.

For another experiment, the system named is UV induced erythema. As to the kind of experiment: UV induced erythema on the skin of guinea pigs. Format: in vivo, guinea pig. The settings on record: for erythema score, 1 hour / erythema score, 2 hours / erythema score, 3 hours / erythema score, 4 hours / erythema score, 24 hours: aggregate score for 3 animals; for erythema score, (After 4 hours) Total Points / erythema score, (After 24 hours) Total Points: aggregate for 3 animals. The protocol:
Some of the compounds of this invention were tested in vivo for their ability to inhibit the effects of UV induced erythema on the skin of guinea pigs. This is an example of an inflammatory process fulfilling the four pathological requirements of "rubor, calor, dolor, and tumor" i.e., reddening, heat, pain, and edematious swelling in the skin. Administration of the compounds of this invention to guinea pigs whose skin was subsequently exposed to ultraviolet light markedly retarded and in some cases eliminated altogether this inflammatory process. Administration of the compounds of this invention was performed both interparenterally and subcutaneously with equivalent results, thereby eliminating any possiblity of reduction in erthyma due to the so called "counter irritant" effect on the serosal soft surface of the gut.
The test was carried out as follows: Guinea pigs of the Hartley strain ranging in weight from 250 to 750 gm. were clipped with coarse and fine clippers to remove as much hair as possible from the back or abdomen. They were then treated with a commercial depilatory for six to seven min. after which they were washed with warm water. The animals were then injected I.P. or subcutaneously with solutions or suspensions of the test compounds made up at 0.02 molar concentrations. The dose was 0.3 ml. per 100 gm. of body weight. A control (untreated) group was also maintained. The animals were then held for 30 min. before being exposed as rapidly as possible to ultra-violet light using a Kromayer lamp for 30 sec. A scoring system was developed to quantitate the erythema. The scoring was from 0 to 5 and is described as follows:
0=no apparent reddening of the skin
0.5=some slight reddening, without a definite border
1.0=a discrete pink circle with a definite border
2.0=a discrete circle of redness with a definite border more intense than 1.0
3.0=same circle with still greater intensity
4.0=same circle with a near maximal response but without any raising of the erythematous spot above the level of the surrounding skin
5.0=a raised edematous circle with the redness at maximal intensity
The animals were scored at hourly intervals for the first four hours. The erythema reached a maximum at this time in the control animals. The major difference between results at 4 hr. and those at 24 is the developement of edema and this occurred in some of the animals treated with phospholipase inhibitors without erythema being present. The results of this test are shown in tabular form in Tables VI and VII. The aggregate scores of the animals treated with the designated compounds are recorded at hourly intervals and compared with the control (untreated) scores. As shown by the tables, the method of this invention markedly retarded UV-induced erythema.

The mark [3] stands for this setting: intraperitoneal, 23-25.2 mg/kg given 30 min. before UV, control 12.
Where [4] appears, read: intraperitoneal, 23-25.2 mg/kg given 30 min. before UV, control 18.
[5] abbreviates: intraperitoneal, 23-25.2 mg/kg given 30 min. before UV, control 24.
Setting [6] is: intraperitoneal, 23-25.2 mg/kg given 30 min. before UV, control 30.
[7] abbreviates: intraperitoneal, 23-25.2 mg/kg given 30 min. before UV, control 50.
Where [8] appears, read: intraperitoneal, 23-25.2 mg/kg, control 78.
The mark [9] stands for this setting: intraperitoneal, 23-25.2 mg/kg, control 128.
Setting [10] is: subcutaneous, 60.9-66.1 mg/kg given 30 min. before UV, control 17.
The mark [11] stands for this setting: subcutaneous, 60.9-66.1 mg/kg given 30 min. before UV, control 23.
[12] abbreviates: subcutaneous, 60.9-66.1 mg/kg given 30 min. before UV, control 29.
Where [13] appears, read: subcutaneous, 60.9-66.1 mg/kg given 30 min. before UV, control 34.
[14] abbreviates: subcutaneous, 60.9-66.1 mg/kg given 30 min. before UV, control 56.
The mark [15] stands for this setting: subcutaneous, 60.9-66.1 mg/kg, control 103.
Where [16] appears, read: subcutaneous, 60.9-66.1 mg/kg, control 158.

T1 sequence (P00592 23-146): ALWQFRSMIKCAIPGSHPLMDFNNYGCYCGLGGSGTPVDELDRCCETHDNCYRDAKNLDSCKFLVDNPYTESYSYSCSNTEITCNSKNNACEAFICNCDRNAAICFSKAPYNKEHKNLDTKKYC

With `CO[C@]1(c2ccccc2C)CC[C@H](NCCCC(=O)c2ccc(F)cc2)CC1` [B, Butyrophenone, 4'-fluoro-4-[(c-4-methoxy-4-o-tolylcyclohexyl)-amino]-, hydrochloride, hemihydrate], the results for the IC50 in experiment [1] and in experiment [2] were 10.7 µM and 183 µM, respectively. In addition, the “erythema score, 1 hour” value was 3 in the experiment on UV induced erythema (setting [3]) and 8 in the experiment with UV induced erythema (setting [10]). Further, the results for the “erythema score, 2 hours” value in the experiment on UV induced erythema (setting [4]) and in the experiment with UV induced erythema (setting [11]) were 5 and 7, respectively. Moreover, the “erythema score, 3 hours” value stood at 5 in the experiment with UV induced erythema (setting [5]) and 6 with UV induced erythema (setting [12]). Further, the “erythema score, 4 hours” value in the experiment on UV induced erythema (setting [6]) stood at 2; in the experiment with UV induced erythema (setting [13]), 13. Further, the “erythema score, 24 hours” value in the experiment with UV induced erythema (setting [7]) came out at 36; in the experiment on UV induced erythema (setting [14]), 33. The “erythema score, (After 4 hours) Total Points” value in the experiment with UV induced erythema (setting [8]) is given as 15; in the experiment on UV induced erythema (setting [15]), 34. In addition, the figures for the “erythema score, (After 24 hours) Total Points” value with UV induced erythema (setting [9]) and in the experiment on UV induced erythema (setting [16]) were 51 and 66, respectively.

On to `CO[C@]1(c2ccc(C)cc2)CC[C@H](NCCCC(=O)c2ccc(F)cc2)CC1` [D, Butyrophenone, 4'-fluoro-4-[(c-4-methoxy-4-p-tolyl-r-1-cyclohexyl)amino]-, hydrochloride], for which the values for the IC50 in experiment [1] and in experiment [2] were 14.9 µM and 261 µM, respectively.

Take `CN(CCCC(=O)c1ccc(F)cc1)[C@H]1CC[C@](CO)(c2ccccc2)CC1` [F, Butyrophenone, 4'-fluoro-4-[[c-4-(hydroxy-methyl)-t-4-phenyl-r- -cyclohexyl]methyl-amino]-]: the IC50 in experiment [1] is 43.7 µM; in experiment [2] it was 65.2 µM. Moreover, the “erythema score, 1 hour” value in the experiment with UV induced erythema (setting [3]) was found to be 14. The “erythema score, 2 hours” value in the experiment with UV induced erythema (setting [4]) is given as 12. For the same compound, the “erythema score, 3 hours” value in the experiment on UV induced erythema (setting [5]) was 12. Also, the “erythema score, 4 hours” value in the experiment on UV induced erythema (setting [6]) is on record as 17. Moreover, the “erythema score, 24 hours” value in the experiment with UV induced erythema (setting [7]) is recorded as 60. Moreover, the “erythema score, (After 4 hours) Total Points” value with UV induced erythema (setting [8]) turned out to be 55. Besides, in the experiment with UV induced erythema (setting [9]), the “erythema score, (After 24 hours) Total Points” value came to 105.

Consider `O=C(CCCN[C@H]1CC[C@H](c2ccc(C(F)(F)F)cc2)CC1)c1ccc(F)cc1` [A, Butyrophenone, 4'-fluoro-4-[[4-(α,α,α-trifluoro-p-tolyl)-cyclohexyl]amino]-, trans-,], for which the IC50 in experiment [1] is 5.1 µM.

Take `O=C(CCCN[C@H]1CC[C@](CO)(c2ccc(Cl)cc2)CC1)c1ccc(F)cc1` [G, Butyrophenone, 4-[[t-4-(p-chlorophenyl)-c-4-(hydroxymethyl)-r-1-cyclo-hexyl]amino]-4'fluoro-, hydrochloride]: the IC50 in experiment [1] was 55.3 µM; in experiment [2], 74.3 µM. In addition, in the experiment on UV induced erythema (setting [10]), the “erythema score, 1 hour” value is reported as 12. Also, the “erythema score, 2 hours” value with UV induced erythema (setting [11]) came out at 13. Also, the “erythema score, 3 hours” value in the experiment with UV induced erythema (setting [12]) was 9. Besides, the “erythema score, 4 hours” value in the experiment with UV induced erythema (setting [13]) came to 13. Further, the “erythema score, 24 hours” value in the experiment on UV induced erythema (setting [14]) was determined as 52. The “erythema score, (After 4 hours) Total Points” value with UV induced erythema (setting [15]) amounted to 46. In addition, in the experiment with UV induced erythema (setting [16]), the “erythema score, (After 24 hours) Total Points” value is 98.

`O=C(CCCN[C@H]1CC[C@](CO)(c2ccccc2)CC1)c1ccc(Cl)cc1` [E, Butyrophenone, 4'-chloro-4-[[c-4-(hydroxy-methyl)-4-phenyl-r-1-yclohexyl]amino]-, hydrochloride]: the IC50 in experiment [1] is 29.8 µM.

Turning to `O=C(CCCNC1CCC(c2ccc(Cl)cc2)CC1)c1ccc(F)cc1` (stereo not drawn) [H, Butyrophenone, 4[[4-(p-chlorophenyl)cyclohexyl]-amino]-4'-fluoro-, hydro-chloride], in the experiment on UV induced erythema (setting [10]), the “erythema score, 1 hour” value was determined as 6. Moreover, in the experiment on UV induced erythema (setting [11]), the “erythema score, 2 hours” value was found to be 6. In the experiment on UV induced erythema (setting [12]), the “erythema score, 3 hours” value worked out at 7. In the experiment with UV induced erythema (setting [13]), the “erythema score, 4 hours” value came to 9. Moreover, in the experiment with UV induced erythema (setting [14]), the “erythema score, 24 hours” value is listed as 52. Further, the “erythema score, (After 4 hours) Total Points” value in the experiment on UV induced erythema (setting [15]) amounted to 28. Further, the “erythema score, (After 24 hours) Total Points” value with UV induced erythema (setting [16]) is listed as 78.
